# Entries after “also recorded” stand apart in the source; their conditions may differ.
# Key:
# GSPT1 = molecular target: T1, GSPT1 (Homo sapiens, UniProt P15170); assay: GSPT1 protein levels after treatment; format: cell-based; details: various concentrations
# T1 construct: endogenously expressing GSPT1 with HiBiT fusion tag via CRISPR; endogenous in cells; host or cells: HEK293T.114
# ARAF = ARAF (Homo sapiens, UniProt P10398); assay: Global proteomics profiling, JURKAT cells; format: cell-based; set-up: endogenous in cells; host or cells: JURKAT, ATCC TIB-152 (A11.2); details: 300 nM, 24 hours
# Method: (§1) Each cell line was treated in duplicate with either DMSO or Compound 157 (final concentration 300 nM) for 24 hours in an incubator at 37° C. with 5% CO2. After the 24-hour incubation, cells were harvested, washed twice with PBS, and snap frozen in liquid nitrogen. Samples were re-suspended in lysis buffer [8 M urea, 50 mM HEPES (pH 8.5), 50 mM NaCl, 1× protease inhibitor cocktail] and lysed by sonication at 4° C. with 85% amplitude in a pulse setting with 30 seconds on and 30 seconds off for a total sonication time of 5 minutes. Lysates were centrifuged at maximum speed for 10 minutes at 4° C. and the supernatant collected, reduced for 1 hour at room temperature with 5 mM TCEP, and the cysteine residues were then alkylated with 15 mM iodoacetamide (room temperature, in dark, 30 minutes). Protein content was extracted by methanol-chloroform precipitation and subsequent ice-cold acetone washes. Protein pellets were resuspended in 8 M urea, 50 mM HEPES (pH 8.5) buffer and protein concentrations were measured by BCA assay. […]
# (§2) For peptide tandem mass tag (TMT) labeling, 100 μg of peptides per sample was prepared at […] concentration in 200 mM HEPES (pH 8.5), 30% acetonitrile (ACN) and each the specific TMT reagent. […] TMT reporter ion intensities were quantified by extracting the signal-to-noise ratio for each. […]
# phospho-ERK (T202/Y204) = assay: HTRF phospho-ERK (T202/Y204) assay in A375-NRAS^Q61K cells; format: cell-based; details: 24 hrs, mean of at least n = 3, read-out: pERK IC50
# Description: A375-NRAS^Q61K cells (harboring BRAF homozygous V600E mutation and NRAS homozygous Q61K mutation) were purchased from ATCC. DMEM Medium without phenol red and supplemented with L-glutamine was purchased from Corning (Corning, NY, USA). Advanced phospho-ERK (Thr202/Tyr204) HTRF assay kits were purchased from Cisbio (Bedford, MA, USA). Cell culture flasks and 384-well microplates were acquired from VWR (Radnor, PA, USA) or Corning (Corning, NY, USA).
# Degradation of activated phospho-ERK (T202/Y204) protein was determined based on quantification of FRET signal using the Advanced phospho-ERK (T202/Y204) HTRF assay kit. Test compounds were added to the 384-well plate from a top concentration of 10 μM with 11 points, half log titration in duplicates. A375-NRAS^Q61K cells were added into 384-well plates at a cell density of 2000 cells per well. The plates were kept at 37° C. with 5% CO2 for 24 hours. Cells treated in the absence of the test compound were the negative control. Positive control was set by wells containing all reagents but no cells. FRET signal was acquired on EnVision™ Multilabel Reader (PerkinElmer, Santa Clara, CA, USA).
# [1] = system: A375 NRAS^Q61K mutant melanoma cell line xenograft; assay: In vivo efficacy in A375 NRAS^Q61K mutant melanoma xenograft; set-up: species or system BALBc/Nude mice; details: oral gavage
# RAF1 (a.k.a CRAF) = RAF1 (a.k.a CRAF) (Homo sapiens, UniProt P04049); assay: Global proteomics profiling, JURKAT cells; format: cell-based; set-up: endogenous in cells; host or cells: JURKAT, ATCC TIB-152 (A12.2); details: 300 nM, 24 hours
# Method: as §1, §2
# HCT-116 = HCT-116 cell growth; format: cell-based; details: HCT-116, mutant KRAS driven, WT BRAF
# T1 sequence (P15170 whole entry, the tested form may be a part): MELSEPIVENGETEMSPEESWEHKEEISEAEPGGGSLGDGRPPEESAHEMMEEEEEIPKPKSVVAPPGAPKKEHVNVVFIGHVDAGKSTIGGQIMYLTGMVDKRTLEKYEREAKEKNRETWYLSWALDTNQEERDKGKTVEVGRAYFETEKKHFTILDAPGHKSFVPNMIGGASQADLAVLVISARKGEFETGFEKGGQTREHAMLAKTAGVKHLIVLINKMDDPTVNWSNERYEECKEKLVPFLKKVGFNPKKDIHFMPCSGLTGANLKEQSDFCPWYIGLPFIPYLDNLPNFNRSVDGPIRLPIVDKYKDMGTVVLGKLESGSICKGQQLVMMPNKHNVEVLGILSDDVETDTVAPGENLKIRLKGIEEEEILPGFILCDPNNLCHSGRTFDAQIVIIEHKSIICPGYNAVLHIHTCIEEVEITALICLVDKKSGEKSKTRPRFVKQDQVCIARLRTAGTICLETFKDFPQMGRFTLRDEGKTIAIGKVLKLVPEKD
# RAF1 (a.k.a CRAF), sequence (P04049 whole entry): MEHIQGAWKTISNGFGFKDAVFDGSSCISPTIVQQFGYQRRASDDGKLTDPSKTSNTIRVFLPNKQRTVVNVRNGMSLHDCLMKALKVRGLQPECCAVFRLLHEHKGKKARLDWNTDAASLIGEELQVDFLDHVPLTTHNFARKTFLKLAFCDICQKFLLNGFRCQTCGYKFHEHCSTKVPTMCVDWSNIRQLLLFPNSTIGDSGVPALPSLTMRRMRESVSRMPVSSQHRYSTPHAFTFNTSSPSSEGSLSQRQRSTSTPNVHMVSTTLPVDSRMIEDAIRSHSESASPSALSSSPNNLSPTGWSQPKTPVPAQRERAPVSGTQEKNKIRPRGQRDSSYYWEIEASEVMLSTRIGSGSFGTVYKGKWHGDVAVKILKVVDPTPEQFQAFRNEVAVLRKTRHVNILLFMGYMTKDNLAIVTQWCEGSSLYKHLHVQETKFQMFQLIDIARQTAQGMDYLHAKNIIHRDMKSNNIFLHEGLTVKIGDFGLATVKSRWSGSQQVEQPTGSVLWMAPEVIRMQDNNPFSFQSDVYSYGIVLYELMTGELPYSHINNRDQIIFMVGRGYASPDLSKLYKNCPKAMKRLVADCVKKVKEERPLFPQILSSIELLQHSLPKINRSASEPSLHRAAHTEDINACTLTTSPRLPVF
# ARAF, sequence (P10398 whole entry): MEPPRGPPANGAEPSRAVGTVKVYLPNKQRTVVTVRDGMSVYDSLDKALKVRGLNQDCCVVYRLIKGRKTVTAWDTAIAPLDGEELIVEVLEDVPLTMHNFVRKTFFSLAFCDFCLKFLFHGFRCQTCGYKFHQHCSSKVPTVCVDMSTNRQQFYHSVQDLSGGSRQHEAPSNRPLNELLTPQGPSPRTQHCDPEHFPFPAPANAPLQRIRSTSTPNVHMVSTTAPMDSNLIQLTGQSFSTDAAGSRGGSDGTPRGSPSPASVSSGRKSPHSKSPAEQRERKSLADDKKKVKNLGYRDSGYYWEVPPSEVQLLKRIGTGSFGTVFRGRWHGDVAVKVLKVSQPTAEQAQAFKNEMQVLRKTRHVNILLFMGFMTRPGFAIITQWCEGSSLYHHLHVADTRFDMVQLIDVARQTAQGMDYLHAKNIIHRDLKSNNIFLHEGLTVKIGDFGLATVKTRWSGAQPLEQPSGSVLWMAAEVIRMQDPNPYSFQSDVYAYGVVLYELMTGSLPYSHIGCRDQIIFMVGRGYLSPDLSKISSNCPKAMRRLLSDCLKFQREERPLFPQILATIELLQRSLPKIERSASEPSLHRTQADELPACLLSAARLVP
compound,measurement,setting,value
"CCN(C)S(=O)(=O)Nc1ccc(F)c(Oc2ccc3ncn([C@H]4COC5(CCN(C(=O)CC6(O)CCN(c7cc8c(cc7F)c(N7CCC(=O)NC7=O)nn8C)CC6)CC5)C4)c(=O)c3c2)c1C#N [Compound 157, (3R)-3-[6-[2-cyano-3-[[ethyl(methyl)sulfamoyl]amino]-6-fluorophenoxy]-4-oxoquinazolin-3-yl]-8-[2-[1-[3-(2,4-dioxo-1,3-diazinan-1-yl)-5-fluoro-1-methylindazol-6-yl]-4-hydroxypiperidin-4-yl]acetyl]-1-oxa-8-azaspiro[4.5]decane]",GSPT1 protein levels,GSPT1,steady
same,ARAF protein level change,ARAF,unchanged
same,IC50,phospho-ERK (T202/Y204),7.8 nM
same,"tumor response, single agent",[1]; single agent,robust tumor growth inhibition; also recorded: efficacious
same,"tumor response, in combination with trametinib",[1]; with MEKi trametinib 0.1 mg/kg BID,tumor regressions
same,RAF1 (CRAF) protein level change,RAF1 (a.k.a CRAF),unchanged
same,effect on cell growth,HCT-116,no effect; also recorded: no impact on cell growth
